Publication PMC13376213, “Systematic discovery of motif-based interactions of the auxiliary domains of USP family deubiquitinases” (Nature Communications, 2026)
Residue numbers refer to the chain shown, from its start. Where two headings read alike, the source gives them in different places. Values belong to the compound of their own block, whether it stands above or below them. Peptide text beside a SMILES is read from it. * marks the point of attachment. FITC = O=C1OC2(c3ccc(O)cc3Oc3cc(O)ccc32)c2ccc(NC(=S)*)cc21

What was measured:
[1] = biological target: T1, USP33 DUSP2 N835A (Homo sapiens, UniProt Q8TEY7, N835A); assay: FP-monitored affinity measurements, USP33 DUSP2 single mutant; type: binding
T1 construct: USP33_DUSP2; Q8TEY7; DUSP2; 806; 921; 6xHis-GST (N, cleaved yes); made in house; host or cells: Escherichia coli BL21-Gold (DE3)
T1 sequence (Q8TEY7 806-921 N835A): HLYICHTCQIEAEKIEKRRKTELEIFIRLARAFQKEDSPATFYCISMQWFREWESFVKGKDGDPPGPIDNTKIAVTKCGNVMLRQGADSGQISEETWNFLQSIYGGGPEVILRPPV
Description: (§1) Proteins were expressed in Escherichia coli (E.coli) BL21-Gold (DE3) bacteria. The cDNAs encoding N-terminal 6-histidine-glutathione S-transferase tagged (6xHis-GST), 6xHis-tagged or GST-tagged protein domains in pETM33, pETM11, pGEX6P1 expression vectors respectively, were obtained from Genescript or kindly provided by MRC-PPU (Suppl. Data 1) The bacteria were transformed with the plasmid and grew at 37 °C in 2YT (5 g/L NaCl, 16 g/L tryptone and 10 g/L yeast extract) supplemented with Kanamycin (30 μg/mL) until reaching an OD600 of 0.7. Protein expression was induced with 0.3 mM isopropyl β-D-1 thiogalactopyranoside (IPTG) for 18 h at 18 °C while shaking. For zinc-finger domains, 50 μM of ZnSO4 was added during expression. […] For fluorescence polarization experiments, the proteins were not eluted from the beads, and the 6xHis-GST tag was cleaved overnight on GSH Sepharose beads at 4 °C while shaking with PreScission Protease in cleavage buffer (50 mM Tris pH 7.5, 150 mM NaCl, 1 mM DTT). […] The purity and size of the proteins were analyzed by SDS-PAGE electrophoresis.
(§2) The measurements were performed at room temperature in a non-binding black half area 96-well plate (Corning) with a total volume of 50 μL per well. […] The data were analyzed using GraphPad Prism version 9.2.0 for MacOS (GraphPad Software, San Diego, California USA, www.graphpad.com). […]

[2] = biological target: T2, USP33 DUSP2 K863E-K865E (Homo sapiens, UniProt Q8TEY7, K863E/K865E); assay: FP-monitored affinity measurements, USP33 DUSP2 double mutant; type: binding
T2 construct: USP33_DUSP2; Q8TEY7; DUSP2; 806; 921; 6xHis-GST (N, cleaved yes); made in house; host or cells: Escherichia coli BL21-Gold (DE3)
T2 sequence (Q8TEY7 806-921 K863E/K865E): T1 sequence (Q8TEY7 806-921 N835A) with A30N, K58E, K60E
Description: as §1, §2

[3] = biological target: T3, USP33 DUSP2 domain (Homo sapiens, UniProt Q8TEY7); assay: FP-monitored affinity measurements, USP33 DUSP2; type: binding; details: USP33_DUSP2; direct FP titration (saturation) of the FITC-labelled peptide; read-out: KD
T3 construct: USP33_DUSP2; Q8TEY7; DUSP2; 806; 921; 6xHis-GST (N, cleaved yes); made in house; host or cells: Escherichia coli BL21-Gold (DE3)
T3 sequence (Q8TEY7 with tags, fused parts or gaps): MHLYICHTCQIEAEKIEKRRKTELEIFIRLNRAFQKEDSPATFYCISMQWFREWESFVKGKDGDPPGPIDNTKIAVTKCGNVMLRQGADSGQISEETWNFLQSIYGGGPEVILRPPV
Description: Proteins were expressed in Escherichia coli (E.coli) BL21-Gold (DE3) bacteria. The cDNAs encoding N-terminal 6-histidine-glutathione S-transferase tagged (6xHis-GST), 6xHis-tagged or GST-tagged protein domains in pETM33, pETM11, pGEX6P1 expression vectors respectively, were obtained from Genescript or kindly provided by MRC-PPU (Suppl. Data 1) The bacteria were transformed with the plasmid and grew at 37 °C in 2YT (5 g/L NaCl, 16 g/L tryptone and 10 g/L yeast extract) supplemented with Kanamycin (30 μg/mL) until reaching an OD600 of 0.7. Protein expression was induced with 0.3 mM isopropyl β-D-1 thiogalactopyranoside (IPTG) for 18 h at 18 °C while shaking. For zinc-finger domains, 50 μM of ZnSO4 was added during expression. The bacterial cultures were pelleted for 15 minutes at 4000 x g at 4 °C and stored at −20 °C until purification. The pellets were resuspended in lysis buffer (1× phosphate-buffered saline (PBS), 0.5 % Triton-X, 5 mM MgCl2, 10 μg/mL lysozyme, cOmplete^TM EDTA-free protease inhibitor cocktail (Roche), 10 μg/mL DNAseI) and incubated for 1 h shaking at 4 °C. […] The supernatant was incubated with glutathione (GSH) Sepharose (Cytiva) or Ni2+ Sepharose (Cytiva) for 1 h at 4 °C while shaking. The beads with the bound protein were washed with 1x PBS and eluted with 10 mM reduced glutathione in 50 mM Tris pH 8.0. For fluorescence polarization experiments, the proteins were not eluted from the beads, and the 6xHis-GST tag was cleaved overnight on GSH Sepharose beads at 4 °C while shaking with PreScission Protease in cleavage buffer (50 mM Tris pH 7.5, 150 mM NaCl, 1 mM DTT). The sample containing the cleaved domain was separated from the tag and protease and buffer-exchanged to 50 mM sodium phosphate buffer pH 7.4 with 1 mM DTT using a PD-10 desalting column (Cytiva). The purity and size of the proteins were analyzed by SDS-PAGE electrophoresis.
The measurements were performed at room temperature in a non-binding black half area 96-well plate (Corning) with a total volume of 50 μL per well. Peptides were obtained from GeneCust (France) with >95% purity. FITC-labeled peptides (N-terminally FITC-labeled without spacer and C-terminally amidated) were dissolved in dimethyl sulfoxide (DMSO), and unlabeled peptides (N-terminally acetylated and C-terminally amidated) were dissolved in 50 mM phosphate buffer pH 7.4. Saturation measurements were performed using a serial dilution of the protein domains in phosphate buffer (25 μL) and the addition of 10 nM FITC-labeled peptide (in phosphate buffer supplemented with 2 mM DTT) (25 μL). […] All measurements were performed in three technical replicates. The data were analyzed using GraphPad Prism version 9.2.0 for MacOS (GraphPad Software, San Diego, California USA, www.graphpad.com). The saturation curves were fitted to the quadratic equation, and the displacement curves were fitted to a sigmoidal dose-response equation as described previously.

[4] = tested on: FLAG-USP20; assay: IP-MS of FLAG-USP20 and variants vs empty vector; type: cell-based, human; details: IP-MS, FLAG-USP20-ΔUBP vs EV; comparison bh_2 Sample_Limma_ImpMedInt_USP20_UBP_domain/EV
Description: For transfection, 1x10^6 HEK293 cells were seeded in 10 cm dishes with DMEM, 10% FBS, 1% L-G (without antibiotic) medium, incubated at 37 °C, with 5 % CO2 for 24 h. Cells were transfected with a transfection mix containing 970 mL of Opti-MEM (Thermo Fisher Scientific), 20 μL of PEI stock (1 mg/mL) and 5 mg of the desired cDNA. For co-transfection, 2.5 μg of DNA of each plasmid was used. The mix was vortexed for 15 s and incubated at room temperature for 15–20 min. The transfection mix was added to the dish and gently mixed. Plates were incubated at 37 °C for 36–48 h before harvesting. For USP33 constructs, 5 μM Bortezomib (proteasome inhibitor) was added 4 hours before harvesting the cells.
FLAG fusion proteins were immunoprecipitated from HEK293 cells transfected with plasmids encoding the protein of interest using the anti-FLAG M2 affinity gel from Sigma-Aldrich. […] The cell lysate was clarified by centrifugation at 17,000 x g, at 4 °C for 12 min, and the supernatant was transferred to a clean, pre-chilled low-binding Eppendorf tube. […] The IP samples were centrifuged at 6500 x g at 4 °C for 30 s. The supernatant containing the unbound proteins was transferred to a clean tube. The resin was washed three times with 500 μL of TBS, centrifuged at 6500 x g at 4 °C for 30 s. The bound FLAG fusion protein was eluted with 100 μL of 150 ng/μL 3X FLAG peptide (Sigma) in TBS and incubated in the cold room for 1 h or overnight. The tube was centrifuged at 6500 x g at 4 °C for 30 s; the eluted proteins were transferred to a clean tube. The eluted proteins were prepared for analysis by western blot or Mass Spectrometry.
Immunoprecipitation (IP) was carried out as described above; four technical replicates of each IP condition were performed, and the empty vector was used as a negative control. The eluted protein was processed following the Strap-micro protocol (Protifi). The IP elution containing 1–100 μg protein was 1:1 mixed with 2X lysis buffer (10% SDS, 100 mM TEAB pH 8.5). […] Samples were vortexed, mixed with 165 μL of 100 mM TEAB in 90% methanol, and passed through an S-Trap micro column at 4000 g for 30 s to trap the proteins. The column was washed with 150 μL of 100 mM TEAB in 90% methanol (at 4,000 x g for 30 seconds) three times. The S-Trap column was centrifuged again and transferred to a clean 2 mL tube for digestion with 20 μL of digestion buffer (1 μg trypsin per 10 μg sample in 50 mM TEAB), at 37 °C overnight in a thermomixer without shaking. The digested peptides were eluted with 40 mL of 50 mM TEAB in water, 40 mL of 0.2 % formic acid in water, and 40 mL of 50 % acetonitrile in water, centrifuging at 4000 x g for 1 min each time. The three elutions were pooled in a low-binding tube, placed on dry ice until frozen, dried in a SpeedVac vacuum (Thermo Scientific), and proceeded with the LCMS analysis.
Protein groups identified with a single peptide or quantified in fewer than three replicates in at least 1 condition were filtered out. Protein group intensities were median normalized and missing values were imputed using a Gaussian distribution centered on the median with a downshift of 1.8 and width of 0.3 (relative to the standard deviation).

[5] = tested on: FLAG-USP33; assay: IP-MS of FLAG-USP33 and variants vs empty vector; type: cell-based, human
Description: For transfection, 1x10^6 HEK293 cells were seeded in 10 cm dishes with DMEM, 10% FBS, 1% L-G (without antibiotic) medium, incubated at 37 °C, with 5 % CO2 for 24 h. Cells were transfected with a transfection mix containing […] of Opti-MEM (Thermo Fisher Scientific), 20 μL of PEI stock (1 mg/mL) and […] of the desired cDNA. For co-transfection, 2.5 μg of DNA of each plasmid was used. The mix was vortexed for 15 s and incubated at room temperature for 15–20 min. The transfection mix was added to the dish and gently mixed. Plates were incubated at 37 °C for 36–48 h before harvesting. For USP33 constructs, 5 μM Bortezomib (proteasome inhibitor) was added 4 hours before harvesting the cells.
FLAG fusion proteins were immunoprecipitated from HEK293 cells transfected with plasmids encoding the protein of interest using the anti-FLAG M2 affinity gel from Sigma-Aldrich. Cell pellets were lysed with 100–200 μL/per dish lysis buffer (Pierce RIPA buffer, 1X protease inhibitor (Roche), 50 unit/μL of Benzonase Nuclease) rotating at 4 °C for 30–45 min. […] The cell lysate was clarified by centrifugation at 17,000 x g, at 4 °C for 12 min, and the supernatant was transferred to a clean, pre-chilled low-binding Eppendorf tube. […] The IP samples were centrifuged at 6500 x g at 4 °C for 30 s. The supernatant containing the unbound proteins was transferred to a clean tube. The resin was washed three times with 500 μL of TBS, centrifuged at 6500 x g at 4 °C for 30 s. The bound FLAG fusion protein was eluted with 100 μL of 150 ng/μL 3X FLAG peptide (Sigma) in TBS and incubated in the cold room for 1 h or overnight. The tube was centrifuged at 6500 x g at 4 °C for 30 s; the eluted proteins were transferred to a clean tube. The eluted proteins were prepared for analysis by western blot or Mass Spectrometry.
Immunoprecipitation (IP) was carried out as described above; four technical replicates of each IP condition were performed, and the empty vector was used as a negative control. The eluted protein was processed following the Strap-micro protocol (Protifi). The IP elution containing 1–100 μg protein was 1:1 mixed with 2X lysis buffer (10% SDS, 100 mM TEAB pH 8.5). […] Samples were vortexed, mixed with 165 μL of 100 mM TEAB in 90% methanol, and passed through an S-Trap micro column at 4000 g for 30 s to trap the proteins. The column was washed with 150 μL of 100 mM TEAB in 90% methanol (at 4,000 x g for 30 seconds) three times. The S-Trap column was centrifuged again and transferred to a clean 2 mL tube for digestion with 20 μL of digestion buffer (1 μg trypsin per 10 μg sample in 50 mM TEAB), at 37 °C overnight in a thermomixer without shaking. The digested peptides were eluted with […] of 50 mM TEAB in water, […] of 0.2 % formic acid in water, and […] of 50 % acetonitrile in water, centrifuging at 4000 x g for 1 min each time. The three elutions were pooled in a low-binding tube, placed on dry ice until frozen, dried in a SpeedVac vacuum (Thermo Scientific), and proceeded with the LCMS analysis.
Eluted peptides were resuspended in water supplemented with 0.015% dodecyl maltoside and 0.1% formic acid and were injected on a Vanquish Neo UHPLC System operating in trap and elute mode coupled to an Orbitrap Astral Mass Spectrometer (Thermo Fisher Scientific). […] Eluted peptides were analyzed using data-independent acquisition mode on the mass spectrometer.
Peptides were searched against the Uniprot Swissprot Human database (released on 02/01/2023) supplemented with the USP20 and USP33 mutants using DiaNN (v1.9.0)[62] operating in library-free mode. Data filtering and statistical analysis were carried out in Python (v3.9.0) using the packages pandas, numpy, sklearn, scipy, rpy2, Plotnine, and Plotly and R (v4.4.3) using the package limma.
Protein groups identified with a single peptide or quantified in fewer than three replicates in at least 1 condition were filtered out. […]

[6] = biological target: T4, USP20 zf-UBP domain (Homo sapiens, UniProt Q9Y2K6); assay: Peptide SPOT array, USP20 zf-UBP; type: binding; details: array of 120 peptides probed with GST-tagged zf-UBP domains of USP20 and USP33
T4 construct: USP20_UBP; Q9Y2K6; zf-UBP; 99; 6xHis-GST (N, cleaved yes); made in house; host or cells: Escherichia coli BL21-Gold (DE3)
T4 sequence (Q9Y2K6 4-99): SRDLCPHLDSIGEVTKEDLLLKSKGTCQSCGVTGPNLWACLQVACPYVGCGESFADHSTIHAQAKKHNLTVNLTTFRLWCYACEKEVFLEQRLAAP
Description: Peptides were synthesized on cellulose membranes with standard Fluoroenylmethylox-ycarbonyl (Fmoc) chemistry using a Multipep automated synthesizer at INTAVIS (Tübingen, Germany) or ordered from JPT (PepSpots). […] The images were analyzed in Fiji (ImageJ2 version 2.9.0).

Kd ([1]; FP, FITC-labeled probe peptide, single mutant domain (Fig. 5F), technical triplicate, read-out: KD, USP33 DUSP2 N835A with FITC-labeled probe peptide): > 300 µM | Kd ([2]; FP, FITC-labeled probe peptide, double mutant domain (Fig. 5F), technical triplicate, read-out: KD, USP33 DUSP2 K863E-K865E with FITC-labeled probe peptide): > 300 µM
Compound: CSCC[C@H](NC(=S)Nc1ccc2c(c1)C(=O)OC21c2ccc(O)cc2Oc2cc(O)ccc21)C(=O)N[C@@H](CC(=O)O)C(=O)N[C@@H](CC(=O)O)C(=O)N[C@@H](CC(=O)O)C(=O)N[C@@H](Cc1ccccc1)C(=O)N[C@@H](CCC(N)=O)C(=O)N[C@@H](CC(C)C)C(=O)N[C@@H](CCCNC(=N)N)C(=O)N[C@@H](CO)C(=O)N[C@@H](Cc1ccccc1)C(=O)N[C@@H](CC(=O)O)C(=O)N[C@@H](CCC(N)=O)C(=O)N[C@@H](CC(C)C)C(=O)N[C@@H](CO)C(N)=O [FITC-HIF1A568-581] ({FITC}-MDDDFQLRSFDQLS-NH2)

Kd [3]: 31.3 µM | Kd ([1]; USP33_DUSP2_N835A, direct FP titration (saturation) of the FITC-labelled peptide, read-out: KD): ~353 µM | Kd ([2]; USP33_DUSP2_K863E/K865E, direct FP titration (saturation) of the FITC-labelled peptide, read-out: KD): ~319 µM
Compound: CSCC[C@H](NC(=S)Nc1ccc2c(c1)C(=O)OC21c2ccc(O)cc2Oc2cc(O)ccc21)C(=O)N[C@@H](CC(=O)O)C(=O)N[C@@H](CC(=O)O)C(=O)N[C@@H](CC(=O)O)C(=O)N[C@@H](Cc1ccccc1)C(=O)N[C@@H](CCC(N)=O)C(=O)N[C@@H](CC(C)C)C(=O)N[C@@H](CCCNC(=N)N)C(=O)N[C@@H](CO)C(=O)N[C@@H](Cc1ccccc1)C(=O)N[C@@H](CC(=O)O)C(=O)N[C@@H](CCC(N)=O)C(=O)N[C@@H](CC(C)C)C(=O)N[C@@H](CO)C(N)=O [FITC_HIF1A] ({FITC}-MDDDFQLRSFDQLS-NH2)

Compound: ESYT2
log2_FC [4]: 1.764 | log2_FC ([5]; IP-MS, FLAG-USP33 UBP mutant vs EV, comparison USP33_E86K_D90R/EV, Limma): 1.582 | log2_FC ([5]; IP-MS, FLAG-USP33 vs EV, comparison USP33_wt/EV, Limma): 1.824 | log2_FC ([5]; Table S7c USP33 MS_and_motif, bait USP33): 1.824

Compound: TMEM131L
log2_FC [4]: 4.636

binding in peptide SPOT array, USP20 versus USP33 zf-UBP [6]: only bound to USP20
Compound: TQNLEDREVLNGVQTE [PARD3B]
